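Briefly, cells in 96-well plates were exposed to five compound concentrations for 48 h, and endpoints were estimated by linear interpolation. Here, GI50 denotes the concentration required for 50% inhibition of growth. TGI: concentration producing complete growth inhibition.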
How the values were obtained:
Assay in all cases: DTP human tumour cell line panel, 48 h
786-0 renal = system: 786-0 renal
A498 renal = system: A498 renal
A549 NSCLC = system: A549 NSCLC
ACHN renal = system: ACHN renal
BT-549 breast = system: BT-549 breast
CAKI-1 renal = system: CAKI-1 renal
CCRF-CEM leukemia = system: CCRF-CEM leukemia
COLO 205 colon = system: COLO 205 colon
DU-145 prostate = system: DU-145 prostate
EKVX NSCLC = system: EKVX NSCLC
HCC-2998 colon = system: HCC-2998 colon
HCT-116 colon = system: HCT-116 colon
HCT-15 colon = system: HCT-15 colon
HL-60(TB) leukemia = system: HL-60(TB) leukemia
HOP-62 NSCLC = system: HOP-62 NSCLC
HOP-92 NSCLC = system: HOP-92 NSCLC
HS 578T breast = system: HS 578T breast
HT29 colon = system: HT29 colon
IGROV1 ovarian = system: IGROV1 ovarian
K-562 leukemia = system: K-562 leukemia
KM12 colon = system: KM12 colon
LOX IMVI melanoma = system: LOX IMVI melanoma
M14 melanoma = system: M14 melanoma
MALME-3M melanoma = system: MALME-3M melanoma
MCF7 breast = system: MCF7 breast
MDA-MB-231 breast = system: MDA-MB-231 breast
MDA-MB-435 = system: MDA-MB-435
MOLT-4 leukemia = system: MOLT-4 leukemia
NCI-H226 lung = system: NCI-H226 lung
NCI-H23 lung = system: NCI-H23 lung
NCI-H460 lung = system: NCI-H460 lung
NCI-H522 lung = system: NCI-H522 lung
NCI/ADR-RES ovarian = system: NCI/ADR-RES ovarian
OVCAR-3 ovarian = system: OVCAR-3 ovarian
OVCAR-4 ovarian = system: OVCAR-4 ovarian
OVCAR-5 ovarian = system: OVCAR-5 ovarian
OVCAR-8 ovarian = system: OVCAR-8 ovarian
PC-3 prostate = system: PC-3 prostate
RPMI-8226 leukemia = system: RPMI-8226 leukemia
RXF 393 renal = system: RXF 393 renal
SF-268 CNS = system: SF-268 CNS
SF-295 CNS = system: SF-295 CNS
SF-539 CNS = system: SF-539 CNS
SK-MEL-2 melanoma = system: SK-MEL-2 melanoma
SK-MEL-28 melanoma = system: SK-MEL-28 melanoma
SK-MEL-5 melanoma = system: SK-MEL-5 melanoma
SK-OV-3 ovarian = system: SK-OV-3 ovarian
SN12C renal = system: SN12C renal
SNB-19 CNS = system: SNB-19 CNS
SNB-75 CNS = system: SNB-75 CNS
SR leukemia = system: SR leukemia
SW-620 colon = system: SW-620 colon
T-47D breast = system: T-47D breast
TK-10 renal = system: TK-10 renal
U251 CNS = system: U251 CNS
UACC-257 melanoma = system: UACC-257 melanoma
UACC-62 melanoma = system: UACC-62 melanoma
UO-31 renal = system: UO-31 renal

CC(C)(C)NC/C(=C\c1ccccc1)C(=O)c1ccccc1
GI50 (786-0 renal): 1.95 µM | TGI (786-0 renal): 4.01 µM | GI50 (A498 renal): 1.8 µM | TGI (A498 renal): 3.64 µM | GI50 (A549 NSCLC): 2.75 µM | TGI (A549 NSCLC): 8.23 µM | GI50 (ACHN renal): 1.45 µM | TGI (ACHN renal): 3.62 µM | GI50 (BT-549 breast): 2.03 µM | TGI (BT-549 breast): 4.39 µM | GI50 (CAKI-1 renal): 1.88 µM | TGI (CAKI-1 renal): 6.36 µM | GI50 (CCRF-CEM leukemia): 0.936 µM | TGI (CCRF-CEM leukemia): 51.7 µM | GI50 (COLO 205 colon): 1.34 µM | TGI (COLO 205 colon): 2.88 µM | GI50 (DU-145 prostate): 2.68 µM | TGI (DU-145 prostate): 9.63 µM | GI50 (EKVX NSCLC): 3.29 µM | TGI (EKVX NSCLC): 13.6 µM | GI50 (HCC-2998 colon): 1.74 µM | TGI (HCC-2998 colon): 3.35 µM | GI50 (HCT-116 colon): 1.18 µM | TGI (HCT-116 colon): 2.58 µM | GI50 (HCT-15 colon): 1.56 µM | TGI (HCT-15 colon): 7.16 µM | GI50 (HL-60(TB) leukemia): 2.59 µM | TGI (HL-60(TB) leukemia): 14.1 µM | GI50 (HOP-62 NSCLC): 3.44 µM | TGI (HOP-62 NSCLC): 11.4 µM | GI50 (HOP-92 NSCLC): 2.4 µM | TGI (HOP-92 NSCLC): 6.56 µM | GI50 (HS 578T breast): 6.11 µM | TGI (HS 578T breast): 60.7 µM | GI50 (HT29 colon): 0.9 µM | TGI (HT29 colon): 3.52 µM | GI50 (IGROV1 ovarian): 2.78 µM | TGI (IGROV1 ovarian): 8.99 µM | GI50 (K-562 leukemia): 2.24 µM | TGI (K-562 leukemia): 12.4 µM | GI50 (KM12 colon): 3.01 µM | TGI (KM12 colon): 24.4 µM | GI50 (LOX IMVI melanoma): 1.3 µM | TGI (LOX IMVI melanoma): 2.89 µM | GI50 (M14 melanoma): 1.8 µM | TGI (M14 melanoma): 4.2 µM | GI50 (MALME-3M melanoma): 2.04 µM | TGI (MALME-3M melanoma): 4.88 µM | GI50 (MCF7 breast): 1.08 µM | TGI (MCF7 breast): 10.4 µM | GI50 (MDA-MB-231 breast): 2.72 µM | TGI (MDA-MB-231 breast): 8.12 µM | GI50 (MDA-MB-435): 2.51 µM | TGI (MDA-MB-435): 12.8 µM | GI50 (MOLT-4 leukemia): 2.23 µM | TGI (MOLT-4 leukemia): 45.9 µM | GI50 (NCI-H226 lung): 2.2 µM | TGI (NCI-H226 lung): 11.2 µM | GI50 (NCI-H23 lung): 1.77 µM | TGI (NCI-H23 lung): 5.02 µM | GI50 (NCI-H460 lung): 1.88 µM | TGI (NCI-H460 lung): 4.57 µM | GI50 (NCI-H522 lung): 0.371 µM | TGI (NCI-H522 lung): 1.77 µM | GI50 (NCI/ADR-RES ovarian): 2.31 µM | TGI (NCI/ADR-RES ovarian): 10.8 µM | GI50 (OVCAR-3 ovarian): 1.19 µM | TGI (OVCAR-3 ovarian): 3.19 µM | GI50 (OVCAR-4 ovarian): 5.6 µM | TGI (OVCAR-4 ovarian): 19.6 µM | GI50 (OVCAR-5 ovarian): 2.33 µM | TGI (OVCAR-5 ovarian): 4.48 µM | GI50 (OVCAR-8 ovarian): 2.82 µM | TGI (OVCAR-8 ovarian): 10.1 µM | GI50 (PC-3 prostate): 3.44 µM | TGI (PC-3 prostate): 13 µM | GI50 (RPMI-8226 leukemia): 2.14 µM | TGI (RPMI-8226 leukemia): 7.31 µM | TGI (RXF 393 renal): 2.37 µM | GI50 (SF-268 CNS): 3.8 µM | TGI (SF-268 CNS): 21 µM | GI50 (SF-295 CNS): 2.86 µM | TGI (SF-295 CNS): 11.4 µM | GI50 (SF-539 CNS): 3.01 µM | TGI (SF-539 CNS): 7.2 µM | GI50 (SK-MEL-2 melanoma): 2.01 µM | TGI (SK-MEL-2 melanoma): 5.02 µM | GI50 (SK-MEL-28 melanoma): 1.9 µM | TGI (SK-MEL-28 melanoma): 3.75 µM | GI50 (SK-MEL-5 melanoma): 1.53 µM | TGI (SK-MEL-5 melanoma): 2.91 µM | GI50 (SK-OV-3 ovarian): 3.83 µM | TGI (SK-OV-3 ovarian): 13.8 µM | GI50 (SN12C renal): 1.95 µM | TGI (SN12C renal): 6.34 µM | GI50 (SNB-19 CNS): 4.27 µM | TGI (SNB-19 CNS): 18.4 µM | GI50 (SNB-75 CNS): 4.67 µM | TGI (SNB-75 CNS): 17.9 µM | GI50 (SR leukemia): 1.67 µM | TGI (SR leukemia): 8.68 µM | GI50 (SW-620 colon): 1.22 µM | TGI (SW-620 colon): 3.5 µM | GI50 (T-47D breast): 2.19 µM | TGI (T-47D breast): 8.98 µM | GI50 (TK-10 renal): 0.94 µM | TGI (TK-10 renal): 2.28 µM | GI50 (U251 CNS): 2.3 µM | TGI (U251 CNS): 6.41 µM | GI50 (UACC-257 melanoma): 2.12 µM | TGI (UACC-257 melanoma): 6.91 µM | GI50 (UACC-62 melanoma): 1.51 µM | TGI (UACC-62 melanoma): 4.91 µM | GI50 (UO-31 renal): 1.41 µM | TGI (UO-31 renal): 2.88 µM

Reference: PubChem BioAssay (NCI)
